This note sets out measurements from paper PMC9598367, “Discovery and Preliminary Structure-Activity Investigation of 3-Substituted-1H-imidazol-5-yl-1H-indoles with In Vitro Activity towards Methicillin-Resistant Staphylococcus aureus” (Antibiotics, 2022).

In brackets after ≈: the same amount, converted by molar mass.

The test system of data set [1] is Staphylococcus aureus ATCC25923. Briefly: MIC by broth dilution, S. aureus ATCC25923. In kind it is cell-based. How it is done: The susceptibility of S. aureus (ATCC25923) to antibiotics and compounds was determined in microplates using the standard broth dilution method in accordance with the recommendations of the Comité de l’AntibioGramme de la Société Française de Microbiologie (CA-SFM) as previously described. Briefly, the minimal inhibitory concentrations (MICs) were determined with an inoculum of 10^5 CFU in 200 µL of Mueller-Hinton broth (MHB) containing two-fold serial dilutions of each drug. […] To determine all MICs, the measurements were independently repeated in triplicate.

The subject of a further data set is S. aureus (ATCC25923). Briefly: Membrane depolarization assay, DiSC3(5). The settings on record: preliminary investigation; result in words. The data set is classed as cell-based, Staphylococcus aureus. On the procedure:
S. aureus (ATCC25923) was grown in MH II broth for 24 h at 37 °C. After reaching an OD600 nm of 0.5, cells were centrifuged (3600× g for 20 min at 20 °C) and washed twice with buffered sucrose solution (250 mM), magnesium sulfate solution (25 mM) and Hepes (5 mM) (pH = 7.2). The fluorescent dye […] DiSC3(5) was added to a final concentration of 5 µM and was incubated with the suspensions for 5 min at 37 °C to allow the dye incorporation into the polarized membranes. 10 µL of compound was then added to 90 µL of the fluorescent suspensions at different concentrations ranging from 200 µM to 25 µM. Fluorescence measurements were recorded for 20 minutes (excitation wavelength 622 nm, emission wavelength 690 nm).
The difference in the relative fluorescence values (RFU) from the control containing only buffer and the control containing bacteria treated only with cetyltrimethylammonium bromide ([…]) is taken as the maximum level of depolarization. Assays were performed in three independent experiments. Blank determined by using no compound. Maximum RFU determined by using CTAB 0.1%
Equation used: (RFU of the compound−RFU of the blank)×100/RFU of the maximum

For data set [2], the system named is Staphylococcus aureus ATCC43300 (MRSA). In words: MIC, MRSA ATCC43300 (CO-ADD protocol). In kind it is cell-based. The following applies: Staphylococcus aureus, Staphylococcus aureus ATCC43300 (MRSA); mean (n = 2); read-out: MIC (µg/mL) MRSA. The text has this:
Additional antimicrobial evaluation against Staphylococcus aureus MRSA (ATCC43300), Pseudomonas aeruginosa (ATCC27853), Escherichia coli (ATCC25922), Klebsiella pneumoniae (ATCC700603), Acinetobacter baumannii (ATCC19606), Candida albicans (ATCC90028), and Cryptococcus neoformans (ATCC208821) was undertaken at the Community for Open Antimicrobial Drug Discovery at The University of Queensland (Australia) according to their standard protocols. For antimicrobial assays, the tested strains were cultured in either Luria broth (LB) (In Vitro Technologies, USB75852, Noble Park North, Australia), nutrient broth (NB) (Becton Dickson, 234000, Macquarie Park, Australia), or cation-adjusted MHB at 37 °C overnight. A sample of culture was then diluted 40-fold in fresh MHB and incubated at 37 °C for 1.5−2 h. The compounds were serially diluted 2-fold across the wells of 96-well plates (Corning 3641, Tewksbury, MA, USA, nonbinding surface), with compound concentrations ranging from 0.015 to 64 μg/mL, plated in duplicate. The resultant mid log phase cultures were diluted to the final concentration of 1 × 10^6 CFU/mL; then, 50 μL was added to each well of the compound containing plates giving a final compound concentration range of 0.008 to 32 μg/mL and a cell density of 5 × 10^5 CFU/mL. All plates were then covered and incubated at 37 °C for 18 h. Resazurin was added at 0.001% final concentration to each well and incubated for 2 h before MICs were read by eye.
(§1) Colistin and vancomycin were used as positive bacterial inhibitor standards for Gram-negative and Gram-positive bacteria, respectively. Fluconazole was used as a positive fungal inhibitor standard for C. albicans and C. neoformans. The antibiotics were provided in 4 concentrations, with 2 above and 2 below its MIC value, and plated into the first 8 wells of column 23 of the 384-well NBS plates. The quality control (QC) of the assays was determined by the antimicrobial controls and the Z′-factor (using positive and negative controls).

The test system of another data set is human red blood cells. Briefly: Hemolytic assay. In kind it is cell-based. The settings on record: concentration at 10% hemolytic activity on human red blood cells; mean (n = 2).
Data set [3] concerns Cryptococcus neoformans ATCC208821. In words: Antifungal MIC, C. neoformans. In kind it is cell-based. The settings on record: Cryptococcus neoformans ATCC208821; mean (n = 2). On the procedure: For the antifungal assay, fungi strains were cultured for 3 days on yeast extract-peptone dextrose (YPD) agar at 30 °C. A yeast suspension of 1 × 10^6 to 5 × 10^6 CFU/mL was prepared from five colonies. These stock suspensions were diluted with yeast nitrogen base (YNB) (Becton Dickinson, 233520) broth to a final concentration of 2.5 × 10^3 CFU/mL. The compounds were serially diluted 2-fold across the wells of 96-well plates (Corning 3641, nonbinding surface), with compound concentrations ranging from 0.015 to 64 μg/mL and final volumes of 50 μL, plated in duplicate. Then, 50 μL of the fungi suspension that was previously prepared in YNB broth to the final concentration of 2.5 × 10^3 CFU/mL was added to each well of the compound-containing plates, giving a final compound concentration range of 0.008 to 32 μg/mL. Plates were covered and incubated at 35 °C for 36 h without shaking. C. albicans MICs were determined by measuring the absorbance at OD530. For C. neoformans, resazurin was added at 0.006% final concentration to each well and incubated for a further 3 h before MICs were determined by measuring the absorbance at OD570–600.
as §1

Data set [4] can be described thus: HEK293 cytotoxicity assay (resazurin). The following applies: human; concentration at 50% cytotoxicity on HEK293 cells; mean (n = 2). The data set is classed as cell-based, human. How it is done: For the HEK293 cytotoxicity assay, cells were counted manually in a Neubauer hemocytometer and plated at a density of 5000 cells/well into each well of the 384-well plates containing the 25× (2 μL) concentrated compounds. The medium used was Dulbecco’s modified eagle medium (DMEM) supplemented with 10% fetal bovine serum (FBS). Cells were incubated together with the compounds for 20 h at 37 °C, 5% CO2. To measure cytotoxicity, 5 μL (equals 100 μM final) of resazurin was added to each well after incubation, and incubated for further 3 h at 37 °C with 5% CO2. After final incubation fluorescence intensity was measured as Fex 560/10 nm, em 590/10 nm (F560/590) using a Tecan M1000 Pro monochromator plate reader. CC50 values (concentration at 50% cytotoxicity) were calculated by normalizing the fluorescence readout, with 74 μg/mL tamoxifen as negative control (0%) and normal cell growth as positive control (100%). The concentration-dependent percentage cytotoxicity was fitted to a dose response function (using Pipeline Pilot) and CC50 values determined.

As a reminder, the melting point is the temperature of the solid-liquid transition. What is called CC50 is the concentration that lowers cell viability or growth by half. A higher CC50 goes with better tolerance by the cells. Take `Fc1ccc2c(-c3cncn3Cc3ccc(I)cc3)c[nH]c2c1` [Compound 6, 6-Fluoro-3-(1-(4-iodobenzyl)-1H-imidazol-5-yl)-1H-indole]: the melting point is 191 to 192 °C. In addition, in data set [1] (Staphylococcus aureus ATCC25923, mean (n = 3)), the MIC is 6.25 µg/mL (≈ 15 µM). Besides, the “activity against S. aureus (in words)” value in data set [1] (result in words) is recorded as “strong activity”. The “membrane depolarization of S. aureus” value in the data set on S. aureus (ATCC25923) is listed as “only very weak membrane depolarization”. Also, the MIC in data set [2] is greater than 32 µg/mL. Besides, the “HC10” value in the data set on human red blood cells is on record as greater than 32 µg/mL. Further, the MIC in data set [3] was found to be 32 µg/mL (≈ 76.7 µM). In data set [4], this compound returned a CC50 at 20 h of 15.6 µg/mL (≈ 37.4 µM).
